This note sets out measurements from PubChem BioAssay AID2060496 (Molecular Pharmacology Branch, DTP, NCI, 2025).

For the assay, the system named is 276233-004-R-J1-PDC complex spheroid viability. The assay can be described thus: Anticancer human tumor 276233-004-R-J1-PDC patient-derived colon adenocarcinoma cell line growth inhibition [GQUAD]. Conditions: for viability, T/C: stronger effect = lower value. From the text: DNA G-quadruplex Stabilizer Agents in Combinations in Complex Spheroids
A high-throughput screen of multi-cell type tumor spheroids was designed to identify active combinations of DNA G-quadruplex stabilizer agents and targeted small molecules. Complex spheroids include a stromal component modeled by human endothelial cells (HUVEC) and fibroblasts modeled by human mesenchymal stem cells (MSCs). The concentration ranges selected for each drug and investigational agent were based upon clinically achievable concentrations if the clinical Cmax of the agent was known.
Compounds. The drugs and investigational agents: pidnarulex (CX-5461; NSC782164), APTO-253 (NSC789042), BRACO-19 (NSC847499), peposertib (NSC802822), ceralasertib (NSC780249), elimusertib (NSC800525), camonsertib (NSC841442), AZD-1390 (NSC803789), olaparib (NSC753686), talazoparib (NSC767125), ART-558 (NSC835418), sotorasib (NSC818433), MRTX-1133 (NSC836407), SN-38 (NSC673596), topotecan (NSC609699), etoposide (NSC141540), doxorubicin (NSC123127), gemcitabine (NSC613327), 5-fluorouracil (NSC19893), paclitaxel (NSC125973), vemurafenib (NSC761431), panobinostat (NSC761190), R-306465 (JNJ-16241199; NSC773264), adavosertib (NSC754352), TP-3654 (NSC805149), carboplatin (NSC241240), KSQ-4279 (NSC840948), and staurosporine (NSC755774) were obtained from the National Cancer Institute (NCI) Developmental Therapeutics Program Chemical Repository (34). The FDA-approved anticancer drug set is available from the NCI Developmental Therapeutics Program. […] The stock solutions were prepared in dimethyl sulfoxide (DMSO, Sigma-Aldrich, St. Louis, MO, cat. D2650) at 800-fold the tested concentration and stored at -70 degrees C prior to their use. All drugs and investigational agents were tested over a range starting from a high concentration at or near the clinical Cmax and decreasing in half-log increments. If the clinical Cmax for an agent had not been determined, the highest concentration tested was 10 microM.
2.3 Cell Culture. All cells were maintained in an incubator at 37 degrees C and 5% CO2 with 95% humidity. The PDC lines were cultured according to standard operating procedures established by the NCI PDMR. All PDCs were thawed and cultured in Matrigel-coated flasks prepared with a working solution of 1X Ham's F-12 nutrient mix, without supplementation (Invitrogen, cat. 11765054), 100 U/mL penicillin-streptomycin (Invitrogen, cat. 15140122), and 2.5% Matrigel (Corning Inc., cat. 354248) for the first three passages. The 857933-349-R-J2-PDC line was cultured in 6C/Colon 1B media, which includes advanced DMEM/F-12 (Thermo Fisher Scientific, cat. 12634028), 10 mM HEPES (Thermo Fisher Scientific, cat. 15630080), 1X GlutaMAX supplement (Thermo Fisher Scientific, cat. 35050061), 0.1 mg/mL primocin (InvivoGen, cat. ant-pm-2), 10% defined fetal bovine serum, heat inactivated (HyClone Laboratories Inc., cat. SH30070.03HI), 50% L-WRN conditioned media (ATCC, cat. CRL-3276), 1.25 mM N-Acetyl-L-cysteine (Sigma-Aldrich, cat. A9165), 10 mM nicotinamide (Sigma-Aldrich, cat. N0636), 1X B-27 supplement (Thermo Fisher Scientific, cat. 17504044), 1X N-2 supplement (Thermo Fisher Scientific, cat. 17502048), 10 microM Y-27632 dihydrochloride (Tocris Bioscience, cat. 1254), and 50 ng/mL human EGF recombinant protein (Thermo Fisher Scientific, cat. PHG0311). The 485176-168-R4-J1-PDC line was cultured in Panc media, which includes all 6C/Colon 1B media components plus 100 ng/mL human FGF-10 (Thermo Fisher Scientific, cat. 100-26), 500 nM SB-431542 (Selleckchem, cat. S1067), and gastrin (Tocris, cat. 3006).
[…]

Structures are written as SMILES. pIC50: −log10 of the molar value. Where “and” joins values, the source holds several entries; their conditions need not be identical. Equal values may be shown once.
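Also: spheroids exposed to drugs for seven days.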

Turning to `O=C(c1cc(Cc2n[nH]c(=O)c3ccccc23)ccc1F)N1CCN(C(=O)C2CC2)CC1`, the viability, T/C (compound 0.0316 µM) was 98.7% and 82% and 96.7%; the viability, T/C (compound 0.1 µM) was 74.7% and 85.1% and 87.7%; the viability, T/C (compound 0.316 µM) is 99.8% and 90.6% and 79%; the viability, T/C (compound 1 µM) was 93.7% and 103% and 84.8%; the viability, T/C (compound 3.16 µM) is 82.7% and 91.9% and 88%; the viability, T/C (compound 10 µM) was 94.1% and 79.9% and 97.9%. Further, where the note is “curve of compound”, the pIC50 was under 5.00.

Regarding `Nc1ccn(C2OC(CO)C(O)C2(F)F)c(=O)n1` (stereo not drawn), the viability, T/C was 86.2% and 88.9% and 100% (compound 0.0316 µM); 76.2% and 97% and 92.5% (compound 0.1 µM); 76.6% and 97.1% and 85.7% (compound 0.316 µM); 69% and 83.3% and 72.7% (compound 1 µM); 83.3% and 79% and 97.7% (compound 3.16 µM); 71.6% and 68.4% and 75.5% (compound 10 µM). The pIC50 (curve of compound) was under 5.00.

Turning to `CN(C)c1ccc(Nc2c3ccc(NC(=O)CCN4CCCC4)cc3nc3cc(NC(=O)CCN4CCCC4)ccc23)cc1`, the viability, T/C was 65% [middle of 12 runs] (compound 0.316 µM), 64.4% [middle of 12 runs] (compound 1 µM), 61.7% [middle of 12 runs] (compound 3.16 µM) and 49.8% [middle of 12 runs] (compound 10 µM). Besides, the negative logarithm of the IC50 (pIC50) (compound alone, run of 02/26/2024) is < 5.00 and 5.40 and 5.25.

As to `Cn1ncnc1[C@H]1c2n[nH]c(=O)c3cc(F)cc(c23)N[C@@H]1c1ccc(F)cc1`, the viability, T/C (compound 0.000999 µM) was 108% and 94.2% and 85.9%; the viability, T/C (compound 0.00316 µM) was 84.1% and 111% and 82.8%; the viability, T/C (compound 0.00999 µM) is 97.9% and 83.5% and 81.7%; the viability, T/C (compound 0.0316 µM) is 80% and 83.1% and 87.4%; the viability, T/C (compound 0.0999 µM) is 108% and 84.9% and 87.8%; the viability, T/C (compound 0.316 µM) was 102% and 89.6% and 80.9%. The negative-log IC50 (pIC50) (curve of compound) was under 6.50.

As for `COc1ccc([C@@H](O)c2cc(-c3ncnc4cc(N5CCOCC5)ccc34)c(F)cc2Cl)nn1` + CN(C)c1ccc(Nc2c3ccc(NC(=O)CCN4CCCC4)cc3nc3cc(NC(=O)CCN4CCCC4)ccc23)cc1, the pIC50 is, setting by setting: (curve of first compound, second compound 0.0316 µM) under 5.00; (curve of first compound, second compound 0.1 µM) 5.26; (curve of first compound, second compound 0.316 µM) 6.21; (curve of first compound, second compound 1 µM) 5.46; (curve of first compound, second compound 3.16 µM) 6.90; (curve of first compound, second compound 10 µM) 6.87. The viability, T/C (second compound 0.0316 µM, first compound 0.0316 µM) is 88.8%; the viability, T/C (second compound 0.0316 µM, first compound 0.1 µM) was 94.6%; the viability, T/C (second compound 0.0316 µM, first compound 0.316 µM) is 87.7%; the viability, T/C (second compound 0.0316 µM, first compound 1 µM) is 74.5%; the viability, T/C (second compound 0.0316 µM, first compound 3.16 µM) was 61%; the viability, T/C (second compound 0.0316 µM, first compound 10 µM) is 54.2%. Further, the viability, T/C runs as follows: (second compound 0.1 µM, first compound 0.0316 µM) 79.4%; (second compound 0.1 µM, first compound 0.1 µM) 79.3%; (second compound 0.1 µM, first compound 0.316 µM) 76.3%; (second compound 0.1 µM, first compound 1 µM) 70.2%; (second compound 0.1 µM, first compound 3.16 µM) 52.9%; (second compound 0.1 µM, first compound 10 µM) 46.8%. The viability, T/C was 78% (second compound 0.316 µM, first compound 0.0316 µM); 63.7% (second compound 0.316 µM, first compound 0.1 µM); 52% (second compound 0.316 µM, first compound 0.316 µM); 49.1% (second compound 0.316 µM, first compound 1 µM); 43.7% (second compound 0.316 µM, first compound 3.16 µM); 39.1% (second compound 0.316 µM, first compound 10 µM). Besides, the viability, T/C (second compound 1 µM, first compound 0.0316 µM) was 56.5%; the viability, T/C (second compound 1 µM, first compound 0.1 µM) is 49.5%; the viability, T/C (second compound 1 µM, first compound 0.316 µM) was 62.5%; the viability, T/C (second compound 1 µM, first compound 1 µM) was 48.8%; the viability, T/C (second compound 1 µM, first compound 3.16 µM) is 52.4%; the viability, T/C (second compound 1 µM, first compound 10 µM) is 38.2%. For the same compound, the viability, T/C (second compound 3.16 µM, first compound 0.0316 µM) was 47.4%; the viability, T/C (second compound 3.16 µM, first compound 0.1 µM) is 54.2%; the viability, T/C (second compound 3.16 µM, first compound 0.316 µM) is 47.6%; the viability, T/C (second compound 3.16 µM, first compound 1 µM) was 42.2%; the viability, T/C (second compound 3.16 µM, first compound 3.16 µM) is 39%; the viability, T/C (second compound 3.16 µM, first compound 10 µM) is 40.1%. The viability, T/C (second compound 10 µM, first compound 0.0316 µM) was 48.3%; the viability, T/C (second compound 10 µM, first compound 0.1 µM) is 56.2%; the viability, T/C (second compound 10 µM, first compound 0.316 µM) is 37.6%; the viability, T/C (second compound 10 µM, first compound 1 µM) is 41.8%; the viability, T/C (second compound 10 µM, first compound 3.16 µM) is 46.8%; the viability, T/C (second compound 10 µM, first compound 10 µM) is 47.5%.

Usually viability, T/C stands for the result in the treated group divided by that in the control group, in per cent. In general, pIC50 refers to the IC50 on a negative log10 scale, so that one unit is a factor of ten.
